# Experimental data published in article PMC10114980, “Triple targeting of mutant EGFR^L858R/T790M, COX-2, and 15-LOX: design and synthesis of novel quinazolinone tethered phenyl urea derivatives for anti-inflammatory and anticancer evaluation” (Journal of Enzyme Inhibition and Medicinal Chemistry, 2023).
# Legend:
# EKVX = test: NCI single dose screen, EKVX; assay type: cell-based; conditions: Homo sapiens, non-small cell lung cancer, single dose 10^−5 M, read-out: growth inhibition percentage
# Method: (§1) Screening of the anticancer activity of the newly synthesised compounds (6a, 6c, 6d, 6e, 6j, 6l, 6m, 6n, 6o, and 6p) was performed by the US National Cancer Institute (NCI) using 60 different human tumour cell lines in accordance with standard procedures formerly reported.
# (§2) In vitro anticancer screening was carried out for the selected compounds at a single dose (10^−5 M) against 60 different human tumour cell lines of nine different cancer cell types: leukaemia, lung, colon, CNS, melanoma, ovarian, renal, prostate, and breast cancers.
# SK-MEL-2 = test: NCI single dose screen, SK-MEL-2; assay type: cell-based; conditions: Homo sapiens; SK-MEL-2, melanoma; single dose 10^−5 M; read-out: growth inhibition percentage
# Method: as §1, §2
# SR = test: NCI single dose screen, SR; assay type: cell-based; conditions: Homo sapiens, leukaemia, single dose 10^−5 M, read-out: growth inhibition percentage
# Method: as §1, §2
# ovine COX-1 = biological target: T1, ovine COX-1 (Ovis aries, UniProt P05979); test: In vitro COX-1 inhibition assay kit (Cayman); assay type: biochemical; conditions: mean ± SEM, n = 3 replicates
# T1 sequence (P05979 25-600): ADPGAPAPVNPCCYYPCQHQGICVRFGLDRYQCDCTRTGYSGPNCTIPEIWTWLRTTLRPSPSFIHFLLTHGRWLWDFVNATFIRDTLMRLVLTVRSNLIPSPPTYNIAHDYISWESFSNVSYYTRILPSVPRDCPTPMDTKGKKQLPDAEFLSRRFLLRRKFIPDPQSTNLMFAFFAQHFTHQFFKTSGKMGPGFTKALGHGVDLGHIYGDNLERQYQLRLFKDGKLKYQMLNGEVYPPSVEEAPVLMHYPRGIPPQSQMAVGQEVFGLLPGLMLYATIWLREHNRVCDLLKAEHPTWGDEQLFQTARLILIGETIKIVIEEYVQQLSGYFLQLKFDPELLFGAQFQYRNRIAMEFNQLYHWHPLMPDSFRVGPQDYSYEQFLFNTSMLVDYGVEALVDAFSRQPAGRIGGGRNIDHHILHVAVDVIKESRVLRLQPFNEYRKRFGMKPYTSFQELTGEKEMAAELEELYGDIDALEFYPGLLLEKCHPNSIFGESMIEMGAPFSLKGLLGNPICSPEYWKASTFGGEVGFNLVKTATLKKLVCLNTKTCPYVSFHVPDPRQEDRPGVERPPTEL
# Method: (§3) The half-maximal inhibitory concentration (IC50, μM) was determined, and the COX-2 selectivity index (SI) was calculated as IC50 (COX-1)/IC50 (COX-2).
# NCI-H322M = test: NCI single dose screen, NCI-H322M; assay type: cell-based; conditions: Homo sapiens, non-small cell lung cancer, single dose 10^−5 M, read-out: growth inhibition percentage
# Method: as §1, §2
# wild-type EGFR = biological target: T2, wild-type EGFR (Homo sapiens, UniProt P00533); test: In vitro EGFR inhibition assay, wild type; assay type: biochemical; conditions: for IC50: read-out: EGFR^WT IC50
# T2 construct: purchased AssayQuant Technologies, Inc. (Marlboro, MA, USA)
# T2 sequence (P00533 25-1210): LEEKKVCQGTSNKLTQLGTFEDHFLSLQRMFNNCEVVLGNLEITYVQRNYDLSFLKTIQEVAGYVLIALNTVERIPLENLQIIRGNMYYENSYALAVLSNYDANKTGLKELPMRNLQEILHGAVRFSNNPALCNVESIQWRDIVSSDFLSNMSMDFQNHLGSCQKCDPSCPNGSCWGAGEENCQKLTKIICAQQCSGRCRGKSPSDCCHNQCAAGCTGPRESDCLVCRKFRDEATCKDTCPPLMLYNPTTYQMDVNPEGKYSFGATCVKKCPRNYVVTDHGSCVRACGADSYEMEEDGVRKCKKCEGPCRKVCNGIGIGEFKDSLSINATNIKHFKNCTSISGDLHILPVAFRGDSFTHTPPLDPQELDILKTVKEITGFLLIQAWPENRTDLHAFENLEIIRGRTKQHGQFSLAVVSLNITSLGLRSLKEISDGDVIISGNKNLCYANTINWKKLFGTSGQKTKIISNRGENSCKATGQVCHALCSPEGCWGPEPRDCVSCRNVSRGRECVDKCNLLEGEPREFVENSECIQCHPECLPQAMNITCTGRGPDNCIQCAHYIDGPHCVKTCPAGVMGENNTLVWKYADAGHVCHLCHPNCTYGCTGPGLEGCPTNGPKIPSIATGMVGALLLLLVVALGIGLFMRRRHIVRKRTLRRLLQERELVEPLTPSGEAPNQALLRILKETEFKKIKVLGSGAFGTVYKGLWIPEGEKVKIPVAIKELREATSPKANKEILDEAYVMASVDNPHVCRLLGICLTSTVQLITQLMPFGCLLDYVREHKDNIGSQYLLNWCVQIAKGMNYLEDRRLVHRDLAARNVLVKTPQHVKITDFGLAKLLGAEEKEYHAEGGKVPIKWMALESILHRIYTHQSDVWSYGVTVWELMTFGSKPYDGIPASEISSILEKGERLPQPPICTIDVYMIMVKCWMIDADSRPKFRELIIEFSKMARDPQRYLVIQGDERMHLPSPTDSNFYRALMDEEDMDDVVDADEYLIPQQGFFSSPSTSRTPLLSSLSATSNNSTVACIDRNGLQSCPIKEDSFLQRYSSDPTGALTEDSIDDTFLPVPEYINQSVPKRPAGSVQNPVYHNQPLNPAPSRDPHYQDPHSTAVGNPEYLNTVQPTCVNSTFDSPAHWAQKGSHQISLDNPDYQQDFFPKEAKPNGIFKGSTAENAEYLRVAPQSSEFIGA
# human recombinant COX-2 = biological target: T3, human recombinant COX-2 (Homo sapiens, UniProt P35354); test: In vitro COX-2 inhibition assay kit (Cayman); assay type: biochemical; conditions: for COX-2 SI: Selectivity index = COX-1 IC50/COX-2 IC50; for IC50: human recombinant COX-2, mean ± SEM, n = 3 replicates
# T3 sequence (P35354 18-604): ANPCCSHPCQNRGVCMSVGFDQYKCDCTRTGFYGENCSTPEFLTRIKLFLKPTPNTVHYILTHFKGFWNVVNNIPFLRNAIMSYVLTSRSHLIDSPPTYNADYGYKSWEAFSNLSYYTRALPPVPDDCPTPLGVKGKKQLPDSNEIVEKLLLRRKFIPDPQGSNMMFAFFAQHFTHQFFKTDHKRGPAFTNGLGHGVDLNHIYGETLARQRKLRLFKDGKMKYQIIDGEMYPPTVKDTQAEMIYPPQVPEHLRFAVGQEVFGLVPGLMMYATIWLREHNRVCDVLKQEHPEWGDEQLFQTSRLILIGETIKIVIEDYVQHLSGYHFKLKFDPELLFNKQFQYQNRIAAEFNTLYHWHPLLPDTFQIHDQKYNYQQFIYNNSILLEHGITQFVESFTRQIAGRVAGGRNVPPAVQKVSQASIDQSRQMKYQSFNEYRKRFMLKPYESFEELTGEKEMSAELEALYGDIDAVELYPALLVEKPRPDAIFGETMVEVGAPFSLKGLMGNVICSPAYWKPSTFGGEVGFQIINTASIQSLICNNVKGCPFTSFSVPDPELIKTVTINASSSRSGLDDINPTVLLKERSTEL
# Method: as §3
# TK-10 = test: NCI single dose screen, TK-10; assay type: cell-based; conditions: Homo sapiens; TK-10, renal cancer; single dose 10^−5 M; read-out: growth inhibition percentage
# Method: as §1, §2
# SNB-75 = test: NCI single dose screen, SNB-75; assay type: cell-based; conditions: Homo sapiens; SNB-75, CNS cancer; single dose 10^−5 M; read-out: growth inhibition percentage
# Method: as §1, §2
# SF-539 = test: NCI single dose screen, SF-539; assay type: cell-based; conditions: Homo sapiens, read-out: growth inhibition percentage
# Method: as §1, §2
# RXF 393 = test: NCI single dose screen, RXF 393; assay type: cell-based; conditions: Homo sapiens; RXF 393, renal cancer; single dose 10^−5 M; read-out: growth inhibition percentage
# Method: as §1, §2
# HOP-92 = test: NCI single dose screen, HOP-92; assay type: cell-based; conditions: Homo sapiens; HOP-92, non-small cell lung cancer; single dose 10^−5 M; read-out: growth inhibition percentage
# Method: as §1, §2
# CAKI-1 = test: NCI single dose screen, CAKI-1; assay type: cell-based; conditions: Homo sapiens; CAKI-1, renal cancer; single dose 10^−5 M; read-out: growth inhibition percentage
# Method: as §1, §2
# HCT-15 = test: NCI single dose screen, HCT-15; assay type: cell-based; conditions: Homo sapiens; HCT-15, colon cancer; single dose 10^−5 M; read-out: growth inhibition percentage
# Method: as §1, §2
# BT-549 = test: NCI single dose screen, BT-549; assay type: cell-based; conditions: Homo sapiens; BT-549, breast cancer; single dose 10^−5 M; read-out: growth inhibition percentage
# Method: as §1, §2
# HT29 = test: NCI single dose screen, HT29; assay type: cell-based; conditions: Homo sapiens, HT-29; HT29, colon cancer; single dose 10^−5 M; read-out: growth inhibition percentage
# Method: as §1, §2
# CCRF-CEM = test: NCI single dose screen, CCRF-CEM; assay type: cell-based; conditions: Homo sapiens, leukaemia, single dose 10^−5 M, read-out: growth inhibition percentage
# Method: as §1, §2
# ACHN = test: NCI single dose screen, ACHN; assay type: cell-based; conditions: Homo sapiens, renal cancer, single dose 10^−5 M, read-out: growth inhibition percentage
# Method: as §1, §2
# NCI-H23 = test: NCI single dose screen, NCI-H23; assay type: cell-based; conditions: Homo sapiens; NCI-H23, non-small cell lung cancer; single dose 10^−5 M; read-out: growth inhibition percentage
# Method: as §1, §2
# NCI-H522 = test: NCI single dose screen, NCI-H522; assay type: cell-based; conditions: Homo sapiens; NCI-H522, non-small cell lung cancer; single dose 10^−5 M; read-out: growth inhibition percentage
# Method: as §1, §2
SMILES,inhibition at 10 µM (EKVX),inhibition at 10 µM (SK-MEL-2),inhibition at 10 µM (SR),IC50 (ovine COX-1),inhibition at 10 µM (NCI-H322M),IC50 (wild-type EGFR),COX-2 SI (human recombinant COX-2),IC50 (human recombinant COX-2),inhibition at 10 µM (TK-10),inhibition at 10 µM (SNB-75),inhibition at 10 µM (SF-539),inhibition at 10 µM (RXF 393),melting point,inhibition at 10 µM (HOP-92),inhibition at 10 µM (CAKI-1),inhibition at 10 µM (HCT-15),inhibition at 10 µM (BT-549),inhibition at 10 µM (HT29),inhibition at 10 µM (CCRF-CEM),inhibition at 10 µM (ACHN),other results
"CN1c2ccccc2C(=O)N(NC(=O)Nc2ccccc2)C1c1ccc([N+](=O)[O-])cc1 (centres unmarked) [Compound 6e, 1-(1-Methyl-2-(4-nitrophenyl)-4-oxo-1,4-dihydroquinazolin-3(2H)-yl)-3-phenylurea]",< 10%,< 10%,< 10%,9.53 ± 1.21 µM,< 10%,48.7 ± 3.47 µM,11.48,0.83 ± 1.37 µM,< 10%,< 10%,< 10%,< 10%,241 to 243 °C,< 10%,< 10%,< 10%,67.1%,< 10%,< 10%,< 10%,inhibition at 10 µM (NCI-H23): < 10%; inhibition at 10 µM (NCI-H522): < 10%
"CN1c2ccccc2C(=O)N(NC(=O)Nc2ccc(F)cc2)C1c1ccc(F)cc1 (centres unmarked) [Compound 6n, 1-(4-Fluorophenyl)-3-(2–(4-fluorophenyl)-1-methyl-4-oxo-1,4-dihydroquinazolin-3(2H)-yl)urea]",16.4%,12.5%,14.4%,10.5 ± 1.48 µM,< 10%,> 100 µM,16.12,0.65 ± 1.3 µM,< 10%,28.1%,10.1%,< 10%,214 to 216 °C,< 10%,25.1%,17.5%,< 10%,< 10%,< 10%,12.6%,inhibition at 10 µM (NCI-H23): < 10%; inhibition at 10 µM (NCI-H522): < 10%
"CN1CN(NC(=O)Nc2ccccc2)C(=O)c2ccccc21 [Compound 6a, 1-(1-Methyl-4-oxo-1,4-dihydroquinazolin-3(2H)-yl)-3-phenylurea]",< 10%,< 10%,< 10%,12.5 ± 1.36 µM,< 10%,> 100 µM,0.18,68.3 ± 1.89 µM,< 10%,< 10%,< 10%,< 10%,240 to 241 °C,< 10%,< 10%,< 10%,< 10%,< 10%,< 10%,< 10%,EGFR^WT IC50 (wild-type EGFR): no significant activity; inhibition at 10 µM (NCI-H23): < 10%; inhibition at 10 µM (NCI-H522): < 10%
"CN1c2ccccc2C(=O)N(NC(=O)Nc2ccccc2)C1c1ccc(F)cc1 (centres unmarked) [Compound 6d, 1-(2-(4-Fluorophenyl)-1-methyl-4-oxo-1,4-dihydroquinazolin-3(2H)-yl)-3-phenylurea]",< 10%,< 10%,< 10%,4.56 ± 1.33 µM,< 10%,> 100 µM,2.20,2.07 ± 1.39 µM,< 10%,13.8%,< 10%,< 10%,230 to 232 °C,< 10%,13%,< 10%,< 10%,< 10%,< 10%,< 10%,inhibition at 10 µM (NCI-H23): < 10%; inhibition at 10 µM (NCI-H522): < 10%
